From ChEMBL document CHEMBL1133956, “Antagonists of the human CCR5 receptor as anti-HIV-1 agents. Part 3: a proposed pharmacophore model for 1-[N-(methyl)-N-(phenylsulfonyl)amino]-2-(phenyl)-4-[4-(substituted)piperidin-1-yl]butanes” (Bioorg Med Chem Lett, 2001) come the findings set out here.

For orientation: inhibition means the drop in the measured response relative to a control, in per cent. A word on the IC50: it is the point on the concentration scale where inhibition reaches its midpoint. A high value points to lower potency.

The first experiment addresses T1, C-C chemokine receptor type 5 (Homo sapiens, UniProt P51681). The experiment in a line: Inhibition of [125I]-MIP-1 alpha binding to human CCR5 receptor expressed in Chinese hamster ovary (CHO) cells at 1000 nM;. It counts as cell-based.
Target sequence in this assay (P51681 whole entry, looked up): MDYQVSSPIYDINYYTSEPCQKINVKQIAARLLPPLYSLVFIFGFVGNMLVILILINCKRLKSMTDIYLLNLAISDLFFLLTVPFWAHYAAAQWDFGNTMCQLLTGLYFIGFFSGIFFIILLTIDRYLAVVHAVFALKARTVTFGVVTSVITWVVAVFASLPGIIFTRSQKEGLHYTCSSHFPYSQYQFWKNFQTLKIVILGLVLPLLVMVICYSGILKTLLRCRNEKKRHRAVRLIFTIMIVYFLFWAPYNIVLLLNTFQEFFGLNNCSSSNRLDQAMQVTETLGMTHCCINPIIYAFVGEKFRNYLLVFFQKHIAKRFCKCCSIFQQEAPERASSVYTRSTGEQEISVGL
In turn, `CN(C[C@@H](CCN1CCC2(CC1)CC(=O)c1ccccc1O2)c1cccc(Cl)c1)S(=O)(=O)c1ccccc1` yielded an inhibition of 24%.

The next experiment deals with T1, C-C chemokine receptor type 5. In words: Inhibition of [125I]-MIP-1 alpha binding to human CCR5 receptor expressed in Chinese hamster ovary (CHO) cells. It counts as cell-based.
Target sequence in this assay (P51681 whole entry): as the sequence (P51681 whole entry, looked up) above
Regarding `CN(C[C@@H](CCN1CCC(CCc2ccccc2)CC1)c1cccc(Cl)c1)S(=O)(=O)c1ccccc1`, the IC50 was determined as 65 nM. Same read-out and setting: the same measure for `COc1ccccc1C1CCN(CC[C@H](CN(C)S(=O)(=O)c2ccccc2)c2cccc(Cl)c2)CC1`: 70 nM; for `CN(C[C@@H](CCN1CCN(c2ccccc2)CC1)c1cccc(Cl)c1)S(=O)(=O)c1ccccc1`: 700 nM.

`CN(C[C@@H](CCN1CCC2(CC1)CNc1ccccc12)c1cccc(Cl)c1)S(=O)(=O)c1ccccc1`: the IC50 stood at 50 nM. On the same count and under the same terms, with `CN(C[C@@H](CCN1CCC2(CC1)CC(=O)c1ccccc12)c1cccc(Cl)c1)S(=O)(=O)c1ccccc1` the figure was 5 nM.

`CN(C[C@@H](CCN1CCC2(CC1)NC(=O)c1ccccc12)c1cccc(Cl)c1)S(=O)(=O)c1ccccc1`: the half-inhibitory concentration (IC50) is 45 nM. The same measure, in the same setting: with `CN(C[C@@H](CCN1CCC2(CC1)CNC(=O)c1ccccc12)c1cccc(Cl)c1)S(=O)(=O)c1ccccc1` the figure was 35 nM. Same read-out and setting: with `CN(C[C@@H](CCN1CCC(c2cccc(C(F)(F)F)c2)CC1)c1cccc(Cl)c1)S(=O)(=O)c1ccccc1` the figure was 120 nM; with `CN(C[C@@H](CCN1CCC(Cc2ccccc2)CC1)c1cccc(Cl)c1)S(=O)(=O)c1ccccc1`, 250 nM; with `CN(C[C@@H](CCN1CCC(c2ccc(F)cc2)CC1)c1cccc(Cl)c1)S(=O)(=O)c1ccccc1`, 25 nM.

Consider `CN(C[C@@H](CCN1CCC(CCCc2ccccc2)CC1)c1cccc(Cl)c1)S(=O)(=O)c1ccccc1`, for which the concentration for half-maximal inhibition (IC50) is 5 nM. Same read-out and setting: with `CN1C(=O)c2ccccc2C12CCN(CC[C@H](CN(C)S(=O)(=O)c1ccccc1)c1cccc(Cl)c1)CC2` the figure was 100 nM; with `CN(C[C@@H](CCN1CCC2(CCc3ccccc32)CC1)c1cccc(Cl)c1)S(=O)(=O)c1ccccc1`, 180 nM. The same measure, in the same setting: the same measure for `Cc1ccccc1N1CCN(CC[C@H](CN(C)S(=O)(=O)c2ccccc2)c2cccc(Cl)c2)CC1`: 2400 nM; for `Cc1ccccc1C1CCN(CC[C@H](CN(C)S(=O)(=O)c2ccccc2)c2cccc(Cl)c2)CC1`: 400 nM. The same measure, in the same setting: the same measure for `CN(C[C@@H](CCN1CCC2(CC1)CC(O)c1ccccc12)c1cccc(Cl)c1)S(=O)(=O)c1ccccc1` (some centres not stated): 100 nM. The molecule `CN(C[C@@H](CCN1CCC2(CC1)CC(=O)Nc1ccccc12)c1cccc(Cl)c1)S(=O)(=O)c1ccccc1` showed an IC50 of 35 nM. On the same count and under the same terms, the same measure for `CN(C[C@@H](CCN1CCC2(CC1)Cc1ccccc1O2)c1cccc(Cl)c1)S(=O)(=O)c1ccccc1`: 260 nM. On the same count and under the same terms, with `CN(C[C@@H](CCN1CCC(c2ccc(Cl)cc2)CC1)c1cccc(Cl)c1)S(=O)(=O)c1ccccc1` the figure was 200 nM.

The target is the same in a further experiment. In words: Inhibition of [125I]-MIP-1 alpha binding to human CCR5 receptor expressed in Chinese hamster ovary (CHO) cells; completely inactive. It is filed as cell-based.
Target sequence in this assay (P51681 whole entry): as the sequence (P51681 whole entry, looked up) above
`CN(C[C@@H](CCc1ccc(-c2ccccc2)cn1)c1ccc(Cl)c(Cl)c1)S(=O)(=O)c1ccccc1`: the IC50 was over 10000 nM. Same read-out and setting: the same measure for `CN(C[C@@H](CCc1ccc(-c2ccccc2)cc1)c1ccc(Cl)c(Cl)c1)S(=O)(=O)c1ccccc1`: over 10000 nM; for `CN(CCc1ccccc1)CC[C@H](CN(C)S(=O)(=O)c1ccccc1)c1cccc(Cl)c1`: over 10000 nM; for `CN(C[C@@H](CCNCCc1ccccc1)c1cccc(Cl)c1)S(=O)(=O)c1ccccc1`: over 10000 nM.

The target is the same in a further experiment. The experiment in a line: Inhibition of [125I]-MIP-1 alpha binding to human CCR5 receptor expressed in Chinese hamster ovary (CHO) cells at 1000 nM. It counts as cell-based.
Target sequence in this assay (P51681 whole entry, looked up): as above
Molecule `CN(C[C@@H](CCN1CCCCC1)c1cccc(Cl)c1)S(=O)(=O)c1ccccc1` had an inhibition of 27%.

Molecule `CN(C[C@@H](CCN1CCC2(CC1)CN(S(C)(=O)=O)c1ccccc12)c1cccc(Cl)c1)S(=O)(=O)c1ccccc1` gave an inhibition of 12%. Still for that read-out and setting: the same measure for `CN(C[C@@H](CCN1CCC(C(C)(C)C)CC1)c1cccc(Cl)c1)S(=O)(=O)c1ccccc1`: 40%.
